Laboratory results: patent US20170320848A1, “COMPOUNDS FOR USE IN ANTHELMINTHIC TREATMENT” (Bayer Animal Health GMBH, priority 2014, published 2017)

Tests used:
Meloidogyne incognita = Meloidogyne incognita assay (MELGIN), gall formation on salad seedlings; assay type: in vivo; settings: application rate 20 ppm, after 14 days
Protocol: Meloidogyne Incognita—Assay (MELGIN)
Solvent: 125.0 parts by weight of acetone
To produce a suitable preparation, 1 part by weight of active compound is mixed with the stated amount of solvent, and the concentrate is diluted with water to the desired concentration.
Vessels are filled with sand, a solution of the active ingredient, a suspension containing eggs and larvae of the southern root-knot nematode (Meloidogyne incognita) and salad seeds. The salad seeds germinate and the seedlings grow. Galls develop in the roots.
After 14 days the nematicidal activity is determined on the basis of the percentage of gall formation. 100% means no galls were found and 0% means the number of galls found on the roots of the treated plants was equal to that in untreated control plants.

[1] = Measurement of LogP values by HPLC on reversed phase columns (EEC directive 79/831 Annex V.A8); assay type: physicochemical; settings: acidic range, 0.1% formic acid in water and acetonitrile as eluent; for chromatographic logP: reversed phase HPLC columns, read-out: logP (HCOOH)[a]
Cooperia curticei = Cooperia curticei assay (COOPCU), larval mortality; assay type: cell-based; settings: application rate 20 ppm, after 5 days; for mortality at 20 ppm: Cooperia curticei, 120 h, read-out: activity (percentage of larval mortality)
Protocol: Cooperia Curticei—Assay (COOPCU)
Solvent: dimethyl sulfoxide
To produce a suitable preparation, 10 mg of active compound are dissolved in 0.5 ml solvent, and the concentrate is diluted with “Ringer's solution” to the desired concentration.
Approximately 40 nematode larvae (Cooperia curticei) are transferred into a test tube containing the compound solution.
After 5 days percentage of larval mortality is recorded. 100% efficacy means all larvae are killed; 0% efficacy means no larvae are killed.

Row | SMILES | nematicidal activity (percentage of gall formation) (Meloidogyne incognita) [%] | logP (HCOOH)[a] [1] | also measured
1 | Cc1cc(-c2cc(F)c(Cl)c(F)c2)ccc1C(F)(F)CNC(=O)c1ccccc1C(F)(F)F [Example 126] | 90 | 4.77 | –
2 | CN(C)c1ccc(-c2ccc(C(F)(F)CNC(=O)c3ccccc3C(F)(F)F)c(Cl)c2)cc1 [Example 28] | – | – | mortality at 20 ppm (Cooperia curticei): 80%; chromatographic logP [1]: 4.28
3 | CN(C)c1ccc(-c2ccc(C(F)(F)CNC(=O)c3ccccc3C(F)(F)F)c(C(F)(F)F)c2)cc1 [Example 10] | – | – | mortality at 20 ppm (Cooperia curticei): 80%
4 | O=C(NCC(F)(F)c1ccc(-c2cccc(OC(F)F)c2)cc1Cl)c1ccccc1C(F)(F)F [Example 65] | 100 | 4.08 | –
5 | O=C(NCC(F)(F)c1ccc(-c2ccc(F)cc2)cc1Cl)c1cccnc1I [Example 64] | 100 | 3.56 | –
6 | COc1cc(-c2ccc(C(F)F)cc2)ccc1C(F)(F)CNC(=O)c1ccccc1C(F)(F)F [Example 91] | – | 3.81 | activity (percentage of larval mortality) (Cooperia curticei): 80%
7 | Cc1cc(-c2cc(F)c(F)c(F)c2)ccc1C(F)(F)CNC(=O)c1ccccc1C(F)(F)F [Example 109] | 100 | 4.48 | –
8 | Cc1cc(-c2cccc(F)c2F)ccc1C(F)(F)CNC(=O)c1ccccc1C(F)(F)F [Example 127] | 90 | 4.1 | –
9 | N#Cc1cc(-c2ccc(F)cc2)ccc1C(F)(F)CNC(=O)c1ccccc1C(F)(F)F [Example 74] | – | 3.63 | activity (percentage of larval mortality) (Cooperia curticei): 90%
10 | N#Cc1cc(-c2ccc(C(F)(F)CNC(=O)c3ccccc3C(F)(F)F)c(Cl)c2)ccc1Cl [Example 95] | 100 | 4.07 | –
11 | O=C(NCC(F)(F)c1ccc(-c2ccc(F)cc2)cc1Cl)c1c(F)cccc1F [Example 60] | 100 | 3.85 | –
12 | O=C(NCC(F)(F)c1ccc(-c2ccc(N3CCCC3)cc2)cc1Cl)c1ccccc1C(F)(F)F [Example 78] | – | 5.08 | activity (percentage of larval mortality) (Cooperia curticei): 90%
13 | Cc1cc(-c2ccc(F)c(Cl)c2)ccc1C(F)(F)CNC(=O)c1ccccc1C(F)(F)F [Example 124] | 100 | 4.56 | –
14 | Cc1cc(-c2ccc(F)cc2F)ccc1C(F)(F)CNC(=O)c1ccccc1C(F)(F)F [Example 119] | 100 | 4.15 | –
15 | Cc1cc(-c2ccc(Cl)c(F)c2)ccc1C(F)(F)CNC(=O)c1ccccc1C(F)(F)F [Example 125] | 100 | 4.61 | –
16 | O=C(NCC(F)(F)c1ccc(-c2ccc(Cl)c(Cl)c2)cc1Cl)c1ccccc1C(F)(F)F [Example 70] | 90 | 4.93 | –
17 | Cc1cc(-c2cccc(Cl)c2)ccc1C(F)(F)CNC(=O)c1ccccc1C(F)(F)F [Example 123] | 100 | 4.56 | –
18 | Cc1cc(-c2ccc(SC(F)(F)F)cc2)ccc1C(F)(F)CNC(=O)c1ccccc1C(F)(F)F [Example 50] | 100 | 5.08 | –
19 | O=C(NCC(F)(F)c1c(F)cc(-c2cc(F)c(F)c(F)c2)cc1F)c1ccccc1C(F)(F)F [Example 108] | 90 | 4.2 | –
20 | N#Cc1cc(-c2cccc(C(F)F)c2)ccc1C(F)(F)CNC(=O)c1ccccc1C(F)(F)F [Example 79] | – | 3.59 | activity (percentage of larval mortality) (Cooperia curticei): 80%
21 | O=C(NCC(F)(F)c1ccc(-c2cccc(Cl)c2)cc1Cl)c1ccccc1C(F)(F)F [Example 69] | 100 | 4.6 | –
22 | O=C(NCC(F)(F)c1ccc(-c2cc(F)c(F)c(F)c2)cc1Cl)c1ncccc1C(F)(F)F [Example 112] | 100 | 4.23 | –
23 | O=C(NCC(F)(F)c1ccc(-c2cccc(C(F)F)c2)cc1Cl)c1ccccc1C(F)(F)F [Example 43] | 100 | 4.03 | –
24 | Cc1cc(-c2ccc(C(F)(F)F)cc2)ccc1C(F)(F)CNC(=O)c1ccccc1C(F)(F)F [Example 88] | – | 4.62 | –
25 | O=C(NCC(F)(F)c1ccc(-c2ccc(F)cc2)cc1Cl)c1ccccc1I [Example 57] | – | 4.17 | –
26 | N#Cc1ccc(-c2ccc(C(F)(F)CNC(=O)c3ccccc3C(F)(F)F)c(C#N)c2)cc1 [Example 73] | – | 1.33 | –
27 | CNc1ccc(-c2ccc(C(F)(F)CNC(=O)c3ccccc3C(F)(F)F)c(Cl)c2)cc1 [Example 29] | – | – | mortality at 20 ppm (Cooperia curticei): 80%; chromatographic logP [1]: 3.59
28 | O=C(NCC(F)(F)c1ccc(-c2ccc(F)cc2)cc1C(F)(F)F)c1nccnc1C(F)(F)F [Example 52] | 100 | – | –

Row | SMILES | nematicidal activity (percentage of gall formation) (Meloidogyne incognita) [%] | logP (HCOOH)[a] [1] | also measured
29 | O=C(NCC(F)(F)c1c(F)cc(-c2ccc(SC(F)(F)F)cc2)cc1F)c1ccccc1C(F)(F)F [Example 47] | 90 | 4.82 | –
30 | O=C(NCC(F)(F)c1ccc(-c2cc(F)c(F)c(F)c2)cc1Cl)c1c(F)cccc1F [Example 117] | 100 | 4.05 | –
31 | N#Cc1cc(-c2cc(F)c(F)c(F)c2)ccc1C(F)(F)CNC(=O)c1ccccc1C(F)(F)F [Example 107] | – | 3.89 | –
32 | O=C(NCC(F)(F)c1ccc(-c2ccc(F)cc2)cc1Cl)c1cccnc1Cl [Example 63] | 100 | 3.46 | –
33 | Cc1cc(-c2ccc(C(F)F)cc2)ccc1C(F)(F)CNC(=O)c1ccccc1C(F)(F)F [Example 80] | – | 4.06 | –
34 | N#Cc1cc(-c2ccc(C(F)F)cc2)ccc1C(F)(F)CNC(=O)c1ccccc1C(F)(F)F [Example 89] | – | 3.59 | –
35 | O=C(NCC(F)(F)c1ccc(-c2ccc(F)c(Cl)c2)cc1Cl)c1ccccc1C(F)(F)F [Example 94] | 100 | 4.57 | –
36 | O=C(NCC(F)(F)c1ccc(-c2ccc(Cl)cc2)cc1C(F)(F)F)c1nccnc1C(F)(F)F [Example 53] | 100 | – | –
37 | O=C(NCC(F)(F)c1c(F)cc(-c2ccc(OC(F)(F)F)cc2)cc1F)c1ccccc1C(F)(F)F [Example 48] | – | 4.56 | –
38 | O=C(NCC(F)(F)c1ccc(-c2ccc(C(F)F)cc2)cc1Cl)c1ccccc1C(F)(F)F [Example 40] | – | 3.99 | –
39 | Cc1cc(-c2ccc(C#N)cc2)ccc1C(F)(F)CNC(=O)c1ccccc1C(F)(F)F [Example 49] | 100 | 3.7 | –
40 | Cc1cc(-c2ccc(F)c(F)c2)ccc1C(F)(F)CNC(=O)c1ccccc1C(F)(F)F [Example 120] | 100 | 4.2 | –
41 | O=C(NCC(F)(F)c1c(F)cc(-c2ccc(C(F)F)cc2)cc1F)c1ccccc1C(F)(F)F [Example 81] | – | 3.9 | –
42 | O=C(NCC(F)(F)c1ccc(-c2ccc(F)cc2)cc1Cl)c1ncccc1C(F)(F)F [Example 62] | 100 | 4.05 | –
43 | O=C(NCC(F)(F)c1ccc(-c2ccc(OC(F)(F)F)cc2)cc1Cl)c1ccccc1C(F)(F)F [Example 39] | – | 4.67 | –
44 | Cc1cc(-c2ccc(Cl)c(Cl)c2)ccc1C(F)(F)CNC(=O)c1ccccc1C(F)(F)F [Example 122] | 100 | 4.98 | –
45 | N#Cc1cc(-c2ccc(SC(F)(F)F)cc2)ccc1C(F)(F)CNC(=O)c1ccccc1C(F)(F)F [Example 83] | – | 4.5 | –
46 | N#Cc1cc(-c2ccc(OC(F)(F)F)cc2)ccc1C(F)(F)CNC(=O)c1ccccc1C(F)(F)F [Example 72] | – | 4.23 | –
47 | COc1ccc(-c2ccc(C(F)(F)CNC(=O)c3ccccc3C(F)(F)F)c(F)c2)cc1 [Example 6] | – | – | mortality at 20 ppm (Cooperia curticei): 80%
48 | COc1cc(-c2ccc(C(F)(F)F)cc2)ccc1C(F)(F)CNC(=O)c1ccccc1C(F)(F)F [Example 87] | – | 4.33 | activity (percentage of larval mortality) (Cooperia curticei): 90%
49 | O=C(NCC(F)(F)c1ccc(-c2cc(F)c(F)c(F)c2)cc1Cl)c1ccccc1Br [Example 116] | – | 4.28 | –
50 | O=C(NCC(F)(F)c1ccc(-c2ccc(C(F)(F)F)cc2)cc1Cl)c1ccccc1C(F)(F)F [Example 41] | – | 4.56 | –
51 | CC(=O)Nc1ccc(-c2ccc(C(F)(F)CNC(=O)c3ccccc3C(F)(F)F)c(Cl)c2)cc1 [Example 30] | – | – | chromatographic logP [1]: 2.93
52 | O=C(NCC(F)(F)c1ccc(-c2cc(F)cc(F)c2)cc1F)c1ccccc1C(F)(F)F [Example 101] | 100 | – | –
53 | O=C(NCC(F)(F)c1ccc(-c2ccc(OC(F)(F)F)c(F)c2)cc1Cl)c1ccccc1C(F)(F)F [Example 106] | – | 4.8 | –
54 | COc1cc(-c2ccc(C#N)cc2)ccc1C(F)(F)CNC(=O)c1ccccc1C(F)(F)F [Example 51] | – | 3.43 | activity (percentage of larval mortality) (Cooperia curticei): 90%
55 | COc1cc(-c2ccc(OC(F)(F)F)cc2)ccc1C(F)(F)CNC(=O)c1ccccc1C(F)(F)F [Example 77] | – | 4.42 | –
